Assay results as given in patent US9493419B2, “Quinoline derivatives as anti-cancer agents” (The Hong Kong Polytechnic University, priority 2007, dated 2016).
In brackets after ≈: the same amount, converted by molar mass.

Columns and labels:
[1] = test system: five carcinoma cell lines (Hep3B, A549, HKESC-1, HKESC-4 and KYSE150); assay: cells; details: read-out: MTS50 (50% of MTS reduction ability by the chemical treated cell as compared with control), against the cancer cell lines, FIG. 1
Source text: (§3) Lung carcinoma cell line (A549) and hepatocellular carcinoma (HCC) cell line (Hep3B) were obtained from American Type of Culture Collection (ATCC). Esophageal squamous cell carcinoma cell line KYSE150 was purchased from DSMZ (Braunschweig, Germany) [13]. […] Hep3B HCC and A549 lung carcinoma cell lines were maintained in DMEM and F12-K medium respectively with 10% of heat inactivated fetal bovine serum (Hyclone) together with antibiotics involving penicillin and streptomycin. All the ESCC cell lines (KYSE150, HKESC-1 and HKESC-4) were maintained in MEM supplemented with 10% of heat inactivated fetal bovine serum together with antibiotics involving penicillin and streptomycin. Cells were allowed to grow in a humidified cell culture incubator keeping at 5% carbon dioxide.
(§4) Briefly, 1×10^4 carcinoma cells were seeded at day 0. After 24 hours, medium was changed and various compounds were added at different concentrations. Cisplatin (CDDP), a commonly used anti-cancer agent, was also used as the positive control. After 48 hours of incubation, the medium was removed and MTS/PMS solution was added and they were incubated further for exactly 30 minutes. Afterwards, optical absorbance was determined at 490 nm according to the user manual (Promega). All the assays were done in triplicates.

[2] = test system: Hep3B; assay: MTS activity assay, Hep3B; format: cell-based, human; details: for viability at 50 µg/mL: Homo sapiens, Hep3B, read-out: Relative MTS Activity at 50 μg/mL Concentration, Hep3B
Source text: (§1) All the assays were done in triplicates.

[3] = test system: Esophageal squamous cell carcinoma cell line HKESC-1; assay: MTS activity assay, HKESC-1; format: cell-based; details: for Relative MTS Activity at 50 μg/mL Concentration, HKESC-1: 48 hours, relative to control
Source text: as §1

[4] = test system: ESCC cell line HKESC-4; assay: MTS activity assay, HKESC-4; format: cell-based; details: for Relative MTS Activity at 50 μg/mL Concentration, HKESC-4: 48 hours, relative to control
Source text: as §1

[5] = test system: Esophageal squamous cell carcinoma cell line KYSE150; assay: MTS activity assay, KYSE150; format: cell-based, human; details: for Relative MTS Activity at 50 μg/mL Concentration, KYSE150: 48 hours, relative to control
Source text: as §1

[6] = test system: five carcinoma cell lines (Hep3B, A549, HKESC-1, HKESC-4 and KYSE150); details: against the cancer cell lines, FIG. 1
Source text: as §3, §4

[7] = Histological examination of organs of treated mice; format: in vivo; details: mice after sacrifice; 10 mg/kg i.p. daily for 19 days
Procedure: (§2) Each group of three mice received intra-peritoneal (i.p.) injection daily with 10 mg/kg of optically pure isomers with 6% polyethylene glycol (PEG Mn 8000) for 19 days. The control group of two mice was injected daily with 6% PEG only. Tumor dimensions were measured regularly with calipers, and tumor volumes were estimated using two-dimensional measurements of length and width and calculated with the formula [l×(w)^2]×0.52 (l is length and w is width) as previously described.

[8] = test system: KYSE150 xenograft tumors; assay: Subcutaneous KYSE150 xenograft tumors in nude mice; format: in vivo; details: 10 mg/kg/day i.p. for 19 days, compared with negative control (6% PEG), FIG. 2
Procedure: Optically pure compound (−)-2b (ee up 99%) was tested for their anti-cancer effects against the subcutaneous xenograft tumors of human esophageal cancer derived from the cell line KYSE150, which was purchased from DSMZ (Braunschweig, Germany) and was cultured in a known way as previously described (for details see reference number 17).
as §2

[9] = test system: Human liver cancer cell line Hep3B; assay: Preliminary anti-cancer screening, One Step ATP lite assay; format: cell-based; design: key to Relative activity to untreated control: “+” (more cell death); “−” (no cytotoxicity); details: 48 hours; for Relative activity to untreated control: Hep3B, 50 ug/ml
Procedure: Human liver cancer cell line Hep3B was used for purpose of preliminary anti-cancer screening for the selected alkaloids. Cancer cells (1×10^4 per well) seeded in the 96 wells microtitre plates for 24 hours were prepared for the alkaloid screening. The selected compounds were prepared as a stock concentration of 50 mg/ml in dimethylsulfoxide (DMSO) and were added at a concentration of 50 μg/ml and incubated for a further of 48 hours. Untreated control received either total complete medium or 0.1% of DMSO. Cisplatin (CDDP, also at 50 μg/ml) was the positive reference which induced more than 95% in Hep3B. Afterwards, the evaluation of possible antiproliferative or cytotoxicity of those alkaloids was examined by the One Step ATP lite assay purchased from PerkinElmer according to the technical manual provided. […] The relative MTS activities were compared with the untreated control and illustrated using symbols “+” (more cell death) and “−” (no cytotoxicity).

[10] = test system: Lung carcinoma cell line (A549); assay: MTS activity assay, A549; format: cell-based; details: 48 hours, relative to control; for viability at 50 µg/mL: Homo sapiens, A549, 50 μg/mL, read-out: Relative MTS Activity at 50 μg/mL Concentration, A549
Source text: as §1

[11] = 50 μg/mL, 48 hours, relative to control

Row | Structure (SMILES) | Relative MTS Activity at 50 μg/mL Concentration, HKESC-1 [3] | Relative MTS Activity at 50 μg/mL Concentration, HKESC-4 [4] | Relative MTS Activity at 50 μg/mL Concentration, KYSE150 [5] | viability at 50 µg/mL [2, 11] [%] | viability at 50 µg/mL [10] [%] | also measured
1 | CC1CCc2c(Br)cc(Br)c(O)c2N1 (single isomer, unassigned; (+)) [(+)-2b, 5,7-Dibromo-1,2,3,4-tetrahydro-2-methylquinolin-8-ol] |  |  |  |  |  | IC50 [1]: 4 to 10 µg/mL (≈ 12.5 to 31.2 µM); cytotoxic activity relative to CDDP ([2]; cell line Hep3B, preliminary results): 1.5 fold; cytotoxic activity relative to CDDP ([3]; cell line HKESC-1, preliminary results): 1.5 fold; cytotoxic activity relative to CDDP ([4]; cell line HKESC-4, preliminary results): 1.5 fold; cytotoxic activity relative to CDDP ([5]; cell line KYSE150, preliminary results): more than 2 fold; MTS50 (50% of MTS reduction ability by the chemical treated cell as compared with control) [6]: ~5 µg/mL
2 | CC1CCc2c(Br)cc(Br)c(O)c2N1 (single isomer, unassigned; (-)) [(−)-2b, 5,7-Dibromo-1,2,3,4-tetrahydro-2-methylquinolin-8-ol] |  |  |  |  |  | Histological examination of liver, heart, lung and kidney sections [7]: no observable damage; MTS50 (50% of MTS reduction ability by the chemical treated cell as compared with control) [6]: ~5 µg/mL; volume growth of the KYSE150 xenograft tumors [8]: effective in suppressing the volume growth
3 | [NH2][Pt]([NH2])([Cl])[Cl] [CDDP, Cisplatin, reference compound] | 0.135 ± 0.017 | 0.158 ± 0.081 | 0.205 ± 0.032 |  |  | effect induced by positive reference in Hep3B ([9]; 50 μg/ml): more than 95%; Relative MTS Activity at 50 μg/mL Concentration, Hep3B [2, 11]: 0.116 ± 0.031; Relative MTS Activity at 50 μg/mL Concentration, A549 [10]: 0.216 ± 0.075
4 | CC1CCc2cccc(OCCN3CCCCC3)c2N1 (stereo not drawn) [Compound 8b, 8-(2-(Piperidin-1-yl)ethoxy)-1,2,3,4-tetrahydro-2-methylquinoline] |  |  |  |  |  | Relative activity to untreated control [9]: +
5 | CC1CCc2cccc(OCc3cccc([N+](=O)[O-])c3)c2N1 (stereo not drawn) [Compound 9b, 8-(3-Nitrobenzyloxy)-1,2,3,4-tetrahydro-2-methylquinoline] | 0.453 ± 0.012 | 0.698 ± 0.096 | 0.619 ± 0.025 | 68.8 ± 2.7 | 70.6 ± 18.4 | 
6 | CC1CCc2cccc(OCc3ccc([N+](=O)[O-])cc3)c2N1 (stereo not drawn) [Compound 10b, 8-(4-Nitrobenzyloxy)-1,2,3,4-tetrahydro-2-methylquinoline] | 1.337 ± 0.145 | 1.056 ± 0.050 | 1.097 ± 0.036 | 126 ± 3 | 166 ± 17.3 | 
7 | COc1ccc(COc2cccc3ccc(C)nc23)cc1 [Compound 11a, 8-(4-methoxybenzyloxy)-2-methylquinoline] | 0.817 ± 0.076 | 0.488 ± 0.017 | 0.797 ± 0.083 | 32 ± 1.7 | 52.7 ± 1.8 | 
8 | COc1ccc(COc2cccc3c2NC(C)CC3)cc1 (stereo not drawn) [Compound 11b, 8-(4-Methoxybenzyloxy)-1,2,3,4-tetrahydro-2-methylquinoline] | 0.917 ± 0.023 | 0.777 ± 0.019 | 0.764 ± 0.001 | 55.4 ± 11.4 | 75.9 ± 7.9 | 
9 | COc1cccc(COc2cccc3ccc(C)nc23)c1 [Compound 12a, 8-(3-methoxybenzyloxy)-2-methylquinoline] | 0.535 ± 0.032 | 0.794 ± 0.005 | 0.648 ± 0.013 | 20.9 ± 3 |  | 
10 | COc1cccc(COc2cccc3c2NC(C)CC3)c1 (stereo not drawn) [Compound 12b, 8-(3-Methoxybenzyloxy)-1,2,3,4-tetrahydro-2-methylquinoline] | 0.682 ± 0.001 | 0.716 ± 0.022 | 0.845 ± 0.010 | 72.6 ± 6.5 |  | 
11 | CC1CCc2cccc(OCc3ccc(C#N)cc3)c2N1 (stereo not drawn) [Compound 13b, 4-((1,2,3,4-Tetrahydro-2-methylquinolin-8-yloxy)methyl)benzonitrile] | 0.754 ± 0.017 | 0.424 ± 0.062 | 0.470 ± 0.087 | 84.2 ± 2.4 |  | 
12 | Cc1ccc2cccc(OCc3cccc(-c4ccccc4)c3)c2n1 [Compound 14a, 8-(biphenyl-3-ylmethoxy)-2-methylquinoline] |  |  |  | 37 ± 21.4 | 24.4 ± 0.3 | 
13 | CC1CCc2cccc(OCc3cccc(-c4ccccc4)c3)c2N1 (stereo not drawn) [Compound 14b, 8-(Biphenyl-3-ylmethoxy)-2-methyl-1,2,3,4-tetrahydroquinoline] |  |  |  | 51 ± 6.8 | 124 ± 6.6 | 
14 | Cc1ccc2cccc(OCc3ccc(OC(F)(F)F)cc3)c2n1 [Compound 15a, 8-(4-(trifluoromethoxy)benzyloxy)-2-methylquinoline] |  |  |  | 77.7 ± 13 | 62.9 ± 8.1 | 
15 | CC1CCc2cccc(OCc3ccc(OC(F)(F)F)cc3)c2N1 (stereo not drawn) [Compound 15b, 8-(4-(Trifluoromethoxy)benzyloxy)-1,2,3,4-tetrahydro-2-methylquinoline] |  |  |  | 76 ± 9 | 84 ± 2.9 | 
16 | CC1CCc2cccc(OCc3ccc(F)cc3)c2N1 (stereo not drawn) [Compound 16b, 8-(4-Fluorobenzyloxy)-1,2,3,4-tetrahydro-2-methylquinoline] |  |  |  | 41.2 ± 1.7 | 90.8 ± 6.3 | 
17 | Cc1ccc2cccc(OCc3ccc(C(F)(F)F)cc3)c2n1 [Compound 17a, 8-(4-(trifluoromethyl)benzyloxy)-2-methylquinoline] |  |  |  | 87.8 ± 7.3 | 92 ± 4.2 | 
18 | CC1CCc2cccc(OCc3ccc(C(F)(F)F)cc3)c2N1 (stereo not drawn) [Compound 17b, 8-(4-(Trifluoromethyl)benzyloxy)-1,2,3,4-tetrahydro-2-methylquinoline] |  |  |  | 73.4 ± 2.4 | 98.3 ± 0.1 | 
19 | CC1CCc2cccc(OCc3ccc(Cl)cc3)c2N1 (stereo not drawn) [Compound 18b, 8-(4-Chlorobenzyloxy)-1,2,3,4-tetrahydro-2-methylquinoline] |  |  |  | 60.9 ± 4.2 | 109 ± 3.9 | 
20 | CC(=O)Oc1cccc2c1NC(C)CC2 (stereo not drawn) [Compound 25b, 2-Methyl-1,2,3,4-tetrahydroquinolin-8-yl acetate] |  |  |  |  |  | Relative activity to untreated control [9]: +
21 | CC(=O)Oc1cccc2c1N(C(C)=O)C(C)CC2 (stereo not drawn) [Compound 26b, 1-Acetyl-2-methyl-1,2,3,4-tetrahydroquinolin-8-yl acetate] |  |  |  |  |  | Relative activity to untreated control [9]: +
